Source: PubChem BioAssay (NCI)
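Step 1: Grow cells in 96-well plates. Step 2: Expose to compound for 48 hours at 5 concentrations. Step 3: Interpolate endpoints linearly; if unreached, use highest concentration. GI50 = concentration required for 50% inhibition of growth. At the TGI there is no net growth.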

Key:
Assay in all cases: NCI-60 cell line screen, 48 h
IGROV1 ovarian = tested on: IGROV1 ovarian
NCI-H522 lung = tested on: NCI-H522 lung
OVCAR-3 ovarian = tested on: OVCAR-3 ovarian
OVCAR-5 ovarian = tested on: OVCAR-5 ovarian
SF-539 CNS = tested on: SF-539 CNS
SK-MEL-28 melanoma = tested on: SK-MEL-28 melanoma
SW-620 colon = tested on: SW-620 colon
UACC-62 melanoma = tested on: UACC-62 melanoma
NCI/ADR-RES ovarian = tested on: NCI/ADR-RES ovarian
PC-3 prostate = tested on: PC-3 prostate
SF-268 CNS = tested on: SF-268 CNS
SF-295 CNS = tested on: SF-295 CNS
T-47D breast = tested on: T-47D breast
MDA-N = tested on: MDA-N

SMILES	TGI (IGROV1 ovarian) [µM]	TGI (NCI-H522 lung) [µM]	TGI (OVCAR-3 ovarian) [µM]	TGI (OVCAR-5 ovarian) [µM]	TGI (SF-539 CNS) [µM]	TGI (SK-MEL-28 melanoma) [µM]	TGI (SW-620 colon) [µM]	TGI (UACC-62 melanoma) [µM]	TGI (NCI/ADR-RES ovarian) [µM]	TGI (PC-3 prostate) [µM]	TGI (SF-268 CNS) [µM]	TGI (SF-295 CNS) [µM]	TGI (T-47D breast) [µM]	GI50 (UACC-62 melanoma) [µM]	TGI (MDA-N) [µM]
CSCCC(C(=O)O)N(CC1(O)OCC(O)C(O)C1O)N=O (stereo not given)	> 100	> 100	> 100	> 100	> 100	> 100	> 100	> 100	–	–	–	–	–	–	–
O=c1c2cc(I)ccc2nc(-c2cccs2)n1/N=C/c1ccccc1	> 100	> 100	> 100	> 100	> 100	> 100	> 100	> 100	> 100	> 100	> 100	> 100	> 100	–	–
O=c1c([OH2+])c(-c2ccc(O)cc2[O-])oc2cc(O)cc([O-])c12.O=c1c([OH2+])c(-c2ccc(O)cc2[O-])oc2cc(O)cc([O-])c12.[Ti+4]	> 100	> 100	> 100	> 100	> 100	> 100	> 100	> 100	–	–	> 100	> 100	–	> 100	–
COc1ccc(-c2cc(=O)c3c(O)cc(O)cc3o2)c(OC)c1OC	> 100	> 100	> 100	> 100	> 100	> 100	> 100	> 100	–	–	> 100	> 100	–	–	–
CC1=C2C3OC(=O)C(C)C3CCC2(C)C=CC1=Nc1ccccc1 (stereo not given)	> 100	> 100	> 100	> 100	> 100	> 100	> 100	> 100	> 100	–	> 100	> 100	–	–	–
CCO/C(Cc1ccc(Cl)cc1)=N/NC(N)=S	> 100	–	> 100	> 100	> 100	> 100	> 100	> 100	> 100	> 100	–	> 100	> 100	–	> 100
COC(=O)/C(C#N)=C(\N)c1c(C)c2ccccc2oc1=N	> 100	> 100	> 100	> 100	> 100	> 100	> 100	> 100	–	> 100	–	> 100	> 100	–	> 100
C=C1Cc2cc(OC)c(OC)c(OC)c2-c2ccc(SC)c(=O)cc21	7.66	< 0.01	< 0.01	12.6	< 0.01	7.88	4	–	–	–	1.42	4.12	–	–	–
O=C(C/C=C/c1ccccc1)c1ccccc1	> 100	34.1	> 100	> 100	56.6	53.6	> 100	26.4	33.7	–	56.8	> 100	42.7	–	50.9
CC(=O)OCC1OC(n2nc(Cc3ccccc3)c(=S)[nH]c2=S)C(OC(C)=O)C(OC(C)=O)C1OC(C)=O (stereo not given)	45.7	47.5	41.2	> 100	67.8	> 100	> 100	35.5	> 100	> 100	52.2	> 100	60.2	–	–
CN(C(=O)c1ccco1)C(=S)N1CCN(c2ccccn2)CC1	> 100	> 100	> 100	> 100	> 100	> 100	> 100	> 100	–	–	> 100	> 100	–	–	–
O=P(O)(CN1CCN(CP(=O)(O)c2ccccc2)CCN(CP(=O)(O)c2ccccc2)CC1)c1ccccc1	> 100	–	> 100	> 100	> 100	> 100	> 100	–	> 100	–	> 100	> 100	> 100	–	> 100
COc1cc(C2c3c(ccc4ccccc34)C(=O)C3CCC(=O)N32)cc(OC)c1O (stereo not given)	> 25	–	> 25	> 25	> 25	> 25	> 25	> 25	> 25	> 25	–	> 25	> 25	–	> 25
CCOC(=O)c1cc(C2CCN(Cc3ccccc3)C2=S)c(C(=O)C=[N+]=[N-])[nH]1 (stereo not given)	> 100	46.7	45.1	> 100	–	51.5	> 100	50.7	79.6	> 100	73.9	66.8	–	–	49.4
CCCN(CCC)C1=Nc2ccccc2-n2cnnc2C1	> 100	> 100	> 100	> 100	> 100	> 100	> 100	> 100	–	–	> 100	> 100	–	–	–
CC1C(c2ccccc2O)c2cc3c(cc2OC1N1CCOCC1)OCO3 (stereo not given)	> 100	37.8	60.6	> 100	46.5	> 100	> 100	90.2	–	> 100	> 100	62	> 100	–	> 100
CCOC(=O)C(CCc1ncnc2c1ncn2Cc1ccccc1)(CCc1ncnc2c1ncn2Cc1ccccc1)C(=O)OCC	> 100	> 100	> 100	> 100	94.6	> 100	> 100	> 100	> 100	> 100	> 100	> 100	–	–	> 100
CCCCc1ccc(C#CC#Cc2ccc(CCCC)s2)s1	> 100	> 100	> 100	> 100	> 100	–	> 100	> 100	> 100	–	> 100	> 100	> 100	–	> 100
COc1c2c(cc3c1C(=O)Cc1ccc4c(c1CN(C)CC3)OCO4)OCO2	> 100	> 100	> 100	> 100	> 100	> 100	> 100	> 100	–	–	> 100	> 100	–	–	–
